Test results published in a melting point compilation (Tetko et al.; mined from patent text by program, amines drawn as free bases though some values may be those of a salt).

melting point	Compound
115 to 116 °C	COc1ccc(C)cc1N1CCN(C(=O)Nc2cc3ccccc3nc2OC)CC1
82 to 83 °C	CS(=O)(=O)OCCCCCCNC(=O)CNC(=O)OCc1ccccc1
197 to 198 °C	O=C(OCC(O)CO)c1cc(F)ccc1Nc1ccnc2c(C(F)(F)F)cccc12 (stereo not given)
158 °C	c1ccc2c(c1)C[C@H]1CSC(=Nc3nccs3)N1C2
110 °C	COC(=O)CCCc1cc2nc(Cl)ccc2n1S(=O)(=O)c1ccc(N2CCOCC2)cc1
93 to 95 °C	O=C(COc1ccc(-c2ccccc2)cc1Br)c1ccccc1
212 °C	Cn1cncc1C(O)(c1ccc(F)cc1)c1ccc2nc(Cl)nc(-c3cccc(Cl)c3)c2c1 (stereo not given)
217 to 219 °C	N#CCc1c[nH]c2ccc(NC(=O)Nc3ccccc3)cc12
202 to 203 °C	CCCc1nn(C)c2c(=O)[nH]c(-c3cc(S(=O)(=O)N4C[C@@H](C)N[C@@H](C)C4)ccc3OCC)nc12
221 °C	COc1ccc(NC(=O)c2ccc([N+](=O)[O-])cc2NC(=O)c2ccc(C(C)(C)C)cc2)cc1
81 °C	CC(C)(C)OC(=O)Oc1ccc(C(=O)OCc2ccccc2)cc1
88 to 90 °C	Cc1oc(-c2ccccc2)nc1CCOc1ccc(CCl)cc1
133 to 136 °C	CCS(=O)(=O)Nc1ccc(F)c([N+](=O)[O-])c1
54 to 55 °C	CN1C(C)(C(=O)OC(C)(C)C)COS1(=O)=O (stereo not given)
78 to 81 °C	CC1(C)C(C=C(Cl)Cl)C1C(N)=O (stereo not given)
167 to 170 °C	COc1cccc(-c2cccc3nc(Nc4cc(OC)c(OC)c(OC)c4)oc23)c1
> 300 °C	NC(=O)c1nc2cc(F)c([N+](=O)[O-])cc2[nH]c1=O
96 to 97 °C	CC(=O)OCC1OC(n2cnc(C#N)n2)C(OC(C)=O)C1OC(C)=O (stereo not given)
50 °C	CC#CCOc1ccc(S(=O)(=O)C(C(=O)NO)c2cccc(Cl)c2)cc1 (stereo not given)
54 to 57 °C	CC(=O)CCCc1ccc(S(N)(=O)=O)s1
185 to 187 °C	CCNS(=O)(=O)CC(=O)C1=CNC(C)=C(C(=O)OC)C1c1cccc([N+](=O)[O-])c1 (stereo not given)
134 to 149 °C	N=C(N)Nc1nc(CSCCNC2=NS(=O)(=O)N=C2N)cs1
177 to 178 °C	CC(=S)NCC1CN(c2ccc(NC=O)c(F)c2)C(=O)O1 (stereo not given)
115 °C	CC(C)(CSc1ccc(Cl)cc1)C(=O)C(Oc1ccc(Cl)cc1)n1cncn1 (stereo not given)
195 to 197 °C	O=C(O)CCCCc1cccn2cncc12

melting point	Compound
148 to 149 °C	COc1ccc2c(-c3ccc(Cl)cc3)noc2c1
208 to 211 °C	CC1Oc2cc(F)c(N)cc2NC1=O (stereo not given)
194 °C	O=c1[nH]c2ccccc2n1Cc1ccccc1
> 300 °C	CCOC(=O)c1cnc2ccc(C(=O)c3ccc(Cl)cc3)cc2c1O
178 to 180 °C	O=C(Cc1ccccc1Cl)Nc1ccc(C(=O)N2CCCCc3sccc32)cc1
> 350 °C	O=C1Oc2ccc(Cl)cc2C2=c3ccccc3=NCC12 (stereo not given)
166 to 167 °C	N#Cc1ccccc1Sc1ccccc1[N+](=O)[O-]
148 to 150 °C	OCc1ccc2c(c1)ncn2Cc1ccccc1
210 to 213 °C	CCCc1ccccc1OCCCOc1ccc2c(=O)cc(C(N)=O)oc2c1
120 to 125 °C	O=C1C(=O)c2ccccc2C2=C1SCC1(CCN(C(=O)Cc3ccc(Cl)cc3)CC1)O2
193 to 194 °C	CC(=O)OCCn1cnc2c(Cl)nc(Nc3ccccc3)nc21
115 to 117 °C	CCOC(=O)C(CCc1ccccc1)(NC(C)=O)C(=O)OCC
184 to 186 °C	COc1ccc(CN(C)CCCSc2ccc(NC(=O)c3cccc4c(=O)c5cccc(OC)c5[nH]c34)cc2)cc1OC
213 to 214 °C	CCOC(=O)c1cn(C2CC2)c2nc(N3C[C@@H](CNC(C)=O)[C@@H](Cl)C3)c(F)cc2c1=O (relative stereo)
263 to 264 °C	CCOC(=O)c1cc2c(=O)c3cc(C(C)(C)O)ccc3oc2nc1N
> 270 °C	Cc1ccc(C)n1-c1cc2c(cc1C(F)(F)F)[nH]c(=O)c(=O)n2CC(=O)O
320 to 322 °C	O=c1[nH]cnc2oc(-c3ccccc3)cc12
190 to 191 °C	Cc1ccc(N(C)S(=O)(=O)c2cccs2)c2[nH]c(-c3ncc(CN4CCC(O)C4)s3)cc12 (stereo not given)
155 to 156 °C	CC1(C)Oc2ccccc2-n2cnc(-c3noc(C4CC4)n3)c21
178 to 180 °C	CCC1(CC)c2cc(-c3nc4ccccc4s3)ccc2-c2ccc(N(c3cccc(OC)c3)c3cccc(OC)c3)cc21
219 to 222 °C	Oc1noc2ccc(Cl)cc12
144 to 145 °C	CC(C#Cc1ccc(Oc2ccc(C(C)(C)C)cc2)o1)N(O)C(N)=O (stereo not given)
240 °C	NCC1CCN(CC(=O)Nc2cccc3c2C(=O)c2c-3n[nH]c2-c2ccc(N3CCOCC3)cc2)CC1
250 °C	O=C(O)Cc1cc(C(=O)c2ccc(Cl)cc2)ccc1O
107 °C	CC(C)(C)C(O)(COC1CCCCO1)Cn1ccnc1 (stereo not given)

melting point	Compound
85 to 88 °C	OCC1=CCOc2ccc(Cl)cc21
94 to 95 °C	CCOC(=O)c1cn(-c2ccc(C(F)(F)F)cn2)nc1C(C)C
254 to 256 °C	O=c1cc(O)cc(-c2cccc(Cl)c2)o1
120 to 121 °C	CCN1CCCC1CNC(=O)c1c(OC)c(Cl)cc(Cl)c1OC (stereo not given)
148 to 150 °C	COC(=O)c1sc(-c2ccccc2)c(N)c1N
188 to 189 °C	Cc1c(-c2ccc(C#N)cc2)c(C#N)c(C2CC2)n1Cc1cnc(Cl)c(COC(=O)CCC(=O)O)c1
85 to 88 °C	COc1cc(C(F)(F)F)nc(NC(=O)Oc2ccccc2)n1
100 to 103 °C	O=C1CC2(CCCC2)C(=O)N1c1ccncc1
162 °C	N#Cc1ccc(Nn2ccnc2)cc1
150 to 151 °C	CCC(C)NC(=O)c1nc2cnn(CC)c2nc1-c1ccccc1 (stereo not given)
148 to 153 °C	CC1(O)CN(C(=O)c2cc(C(C)(C)C)c(O)c(C(C)(C)C)c2)C1
66 °C	Cc1cc(C)cc(-c2cnn3c(-c4cccc(-c5nnn(CCN6CCCCC6)n5)c4)ccnc23)c1
140 to 141 °C	CC(C)(C)OC(=O)CON1C(=O)c2ccccc2C1=O
198 to 200 °C	COc1cc(OC)c(F)c(N2Cc3cnc(S(C)=O)nc3N(C3CC3)C2=O)c1F (stereo not given)
149 to 150 °C	CC=Cc1c(-c2ccc(S(C)(=O)=O)cc2)cnn(-c2ccc(F)c(F)c2)c1=O
74 to 78 °C	CC#CCOc1ccc(S(=O)(=O)N(Cc2cccnc2)C(CSCc2ccccc2)C(=O)NO)cc1 (stereo not given)
96 to 97 °C	CCOc1nn(Cc2ccc(OCc3nc(-c4ccccc4)oc3C)cc2)cc1CCC(=O)O
179 to 180 °C	CC(C)(C)c1nc(S(C)(=O)=O)n(-c2c(Cl)cc(Cl)cc2Cl)n1
158 to 160 °C	FC(F)(F)c1cccc(-c2ccnc3ncnn23)c1
123 to 125 °C	O=C(OCCN1CCCCC1)c1c[nH]c2ccccc12
129 °C	O=CNc1ccccc1O
140 to 142 °C	CCc1cc(C(=O)c2ccccc2Cl)c(-n2cnnc2CNC(=O)c2ccccc2)s1
152 to 154 °C	CCCCc1cnc(C2=NC(C)(C(C)C)C(=O)N2)c(C(=O)O)c1 (stereo not given)
126 to 127 °C	O=Cc1ccc(OCC(F)(F)F)c([N+](=O)[O-])c1
110 °C	CC(CC(O)(CNc1ccc2c(c1)COC2=O)C(F)(F)F)c1ccccc1 (stereo not given)

melting point	Compound
92 to 95 °C	NC(=O)CCC(N)CO (stereo not given)
155 to 156 °C	COc1cc(CCCC2OC(=O)NC2=O)cc(OC)c1O (stereo not given)
106 to 107 °C	CC(=O)c1ccc2c(c1)ncn2-c1cccc(C(=O)OC2CCN(C)CC2)c1
219 to 220 °C	CC(C)(C)OC(=O)Nn1c(=O)cc2n(C3CC3)c3cc(N4CCN(C(=O)OC(C)(C)C)CC4)c(F)cc3n2c1=O
132 to 133 °C	COC(=O)COCc1cc(C(C)(C)C)c(O)c(C(C)(C)C)c1
135 to 140 °C	COc1ccc(Nc2cncc(-c3cccc(NC(=O)c4ccccc4)c3)c2)cc1
68 to 75 °C	CC(C)(C)SC[C@H](NC(=O)C(CS)Cc1ccccc1)C(=O)O (stereo not given in full)
159 to 160 °C	CC(C)(O)c1nnc(-c2ccc3ncn(-c4ccc(OC(F)(F)F)cc4)c3c2)o1
111 °C	CN1C(=O)N(CC(CS(=O)(=O)c2ccc(Oc3ccc(Cl)cc3)cc2)N(O)C=O)C(=O)C1(C)C (single isomer, unassigned; (-))
143 to 144 °C	CCOC(=O)c1cc2c(Cl)cccc2n1CC#N
139 to 140 °C	Cc1cc(C)c2c(c1C)OC(C)(CC(=O)O)C2 (stereo not given)
169 to 170 °C	CN(CCCNC(=O)c1cc(Cl)cc2nc3ccccc3nc12)CCCNC(=O)c1cc(Cl)cc2nc3ccccc3nc12
208 °C	CCCC1=C(C#N)C(c2cccc3oc(C)nc23)c2c[nH]nc2N1 (stereo not given)
122 to 123 °C	Cc1sc(-c2ccccc2)nc1COc1ccc(COc2ccccc2CC(=O)O)cc1
101 to 102 °C	CC(=O)N1CCC(CCCC(=O)c2ccc3c(c2)CCN(C(=O)C(F)(F)F)CC3)CC1
258 to 262 °C	CC(=O)Nc1cccc2c1NC(=O)C2c1ccccc1 (stereo not given)
237 °C	Nc1nc(N)c(N=O)c(OCC2CC=CCC2)n1 (stereo not given)
208 °C	O=C1c2ccccc2C(O)(c2ccccc2)N1CCc1ccccc1F (stereo not given)
156 to 157 °C	CC(=O)N1c2ccccc2-c2c([N+](=O)[O-])cnn2C1c1ccccc1 (stereo not given)
203 to 204 °C	CS(=O)(=O)c1ccc(-c2cnn(-c3ccc(F)cc3)c(=O)c2C#Cc2ccccc2)cc1
170 to 172 °C	CCC(=O)c1cnc2c(OCCO)cccc2c1Nc1ccc(F)cc1C
120 °C	CNC(=O)NS(=O)(=O)c1cc(CCNC(=O)/C=C/c2cccs2)ccc1OC

Compound	melting point
CNCc1nc(C(=O)NC)c2n1-c1ccc(Cl)cc1C(c1ccccc1Cl)=NC2	270 to 273 °C
COc1cc(N2CCNCC2)c2ncccc2c1	105 to 107 °C
O=C1CCC2(CCOC2=O)C(=O)C1 (stereo not given)	145 to 148 °C
